In patent US20260306460A1, “COMPOSITION FOR REMOVING AND INHIBITING SENESCENT CELLS, AND USES THEREOF” (LIFECEUTIX CO., LTD., priority 2023, published 2026):

Legend:
[1] = system: naturally aged C57BL6J mice; assay: Cardiac aging (cardiomyocyte size, Sur2a mRNA) in naturally aged mice, Example 21-13, Table 28; assay type: in vivo, mouse; details: heart; for Cardiomyocyte cross-sectional area (μm2): untreated aged 372 (±9); for Sur2a mRNA (fold): untreated aged = 1
Procedure: 22-month-old female C57BL6J mice (KRIBB Laboratory Animal Resource Center) were acclimated to the experimental environment for one week, after which the aged mice were randomly assigned to experimental and control groups. Eight-week-old, non-aged mice served as controls. LX-403 was mixed in a 10% ethanol solution of PEG400 and administered orally at a concentration of 25 mg/kg daily for 21 days, or administered to the skin, joints, or eyes at a concentration of 1 μM. LX-1801 was mixed in distilled water with 4% DMSO, 30% PEG300, and 5% Tween80 and administered to the skin, joints, or eyes at a concentration of 0.4 μM daily for 21 days. LX-2001 was mixed in PBS and administered to the skin, joints, or eyes at a concentration of […] daily for 21 days. LX-2002 was mixed in distilled water with 4% DMSO, 30% PEG300, and 5% Tween80 and administered to the skin, joints, or eyes at a concentration of 2 μM daily for 21 days. […] LX-2005 was mixed in distilled water with 4% DMSO, 30% PEG300, and 5% Tween80 and administered to the skin, joints, or eyes at a concentration of 90 μM daily for 21 days. LX-2007 was mixed in distilled water with 4% DMSO, 30% PEG300, and 5% Tween80 and administered to the skin, joints, or eyes at a concentration of 90 μM daily for 21 days. […] LX-3002 was mixed in distilled water with 4% DMSO, 30% PEG300, and 5% Tween80 and administered orally at a concentration of 10 mg/kg daily for 21 days. […] LX-5411 was mixed in 5% PBS and administered orally at a concentration of 10 mg/kg daily for 21 days or administered to the skin, joints, or eyes at a concentration of 3 μM. LX-5701 was mixed in PBS and administered orally at a concentration of 360 mg/kg daily for 21 days. LX-6807 was mixed in saline and administered intraperitoneally at a concentration of 1 mg/kg daily for 21 days. LX-2101 or LX-2102 was mixed in PBS solution with 5% DMSO and administered intraperitoneally at a concentration of 20 mg/kg or 10 mg/kg, respectively, daily for 21 days. The control group received only the solution in the same volume. After the end of drug administration, the methods described in each example below were performed.
At the histological level, cardiac aging is characterized by the loss of ventricular cardiomyocytes due to a decreased ability to replace apoptotic or necrotic cardiomyocytes, leading to hypertrophy of the remaining cardiomyocytes. To assess age-related cardiac hypertrophy, frozen cardiac tissue sections were stained with hematoxylin/eosin (H/E) and the thickness of ventricular cardiomyocytes was observed under an optical microscope.
Furthermore, cardiac aging is characterized by decreased stress tolerance, which is known to be due to decreased expression of ATP-sensitive potassium (KATP) channels. RNA was extracted from heart tissue as described in Example 7-2 of WO2023-085787 A1, and qRT-PCR was performed on Sur2a, a regulatory subunit of the KATP channel, using the synthesized cDNA.

[2] = system: doxorubicin-induced aged C57BL6J mice; assay: Kidney damage (urea, creatinine, Agtr1a mRNA) in doxorubicin-aged mice, Example 22-9, Table 38; assay type: in vivo, mouse; details: amount after aging calculated as 100%; for Creatinine / Urea: serum
Procedure: Eight-week-old male C57BL6J mice (KRIBB Laboratory Animal Resource Center) were acclimated to the experimental environment for one week. Afterwards, the anticancer agent doxorubicin was administered intraperitoneally at a concentration of 10 mg/kg, inducing aging for more than 10 days. The aging-induced mice were randomly assigned to experimental and control groups. LX-403 was mixed with a 10% ethanol solution of PEG400 and administered orally at a concentration of 25 mg/kg or intradermally at a concentration of 1 μM for 21 days. LX-1801 was mixed in distilled water with 4% DMSO, 30% PEG300, and 5% Tween80 and administered intradermally at a concentration of 0.4 μM daily for 21 days. LX-2001 was mixed in PBS and administered intradermally at a concentration of 2 μM daily for 21 days. LX-2002 was mixed in distilled water with 4% DMSO, 30% PEG300, and 5% Tween80 and administered intradermally at a concentration of 2 μM daily for 21 days. […] LX-2005 was mixed in distilled water with 4% DMSO, 30% PEG300, and 5% Tween80 and administered intradermally at a concentration of 90 μM daily for 21 days. LX-2007 was mixed in distilled water with 4% DMSO, 30% PEG300, and 5% Tween80 and administered intradermally at a concentration of 90 μM daily for 21 days. […] LX-3002 was mixed in distilled water with 4% DMSO, 30% PEG300, and 5% Tween80 and administered orally at a concentration of 10 mg/kg daily for 21 days. […] LX-5411 was mixed in 5% phosphate-buffered saline (PBS) and administered orally at a concentration of 10 mg/kg daily for 21 days or intradermally at a concentration of 3 μM. LX-5701 was mixed in PBS and administered orally at a concentration of 360 mg/kg daily for 21 days. LX-6807 was mixed in saline and administered intraperitoneally at a concentration of 1 mg/kg daily for 21 days. The control group received only the solution in the same volume. After the end of drug administration, the methods described in each example below were performed.
The amounts of urea and creatinine, markers of kidney damage, were measured spectrophotometrically in serum collected from mice using the same method as in Examples 7-8 of WO2023-085787 A1. […] The amount of each factor after aging was calculated as 100% and compared with the amount of each factor after treatment with the test compound.

Row | Compound | Cardiomyocyte cross-sectional area (μm2) [1] | Agtr1a mRNA [2] | Creatinine [2] | Urea [2] | Sur2a mRNA (fold) [1]
1 | CCCC\C=C/C=C/C=C\CCCCCCCC(=O)O [LX-2707, Punicic acid] | 331 (±15.7) μm2 | 62 (±3.8) % | 75 (±5.3) % | 80 (±3.3) % | –
2 | O=C1C2CCN(CC2)C1CNC(=O)C(F)(F)F (stereo not drawn) [LX-5701] | 297 (±20) μm2 | 60 (±10.4) % | 80 (±5.0) % | 75 (±5.9) % | 2.8 (±0.2) fold
3 | Cc1cccc([C@H](C)c2cnc[nH]2)c1C [LX-6807, Dexmedetomidine] | 281 (±47.1) μm2 | 43 (±3.0) % | 73 (±2.7) % | 72 (±5.8) % | 3.0 (±0.2) fold
4 | Tocofersolan [LX-3001] | 345 (±27.6) μm2 | 70 (±5.8) % | 85 (±4.4) % | 76 (±2.8) % | –
